Measurements reported in BindingDB's records for doi:10.1016/j.bmcl.2014.03.015 (Jiangnan University, 2014).

Biological target: T1, Tyrosine-protein phosphatase non-receptor type 11 (Homo sapiens, UniProt Q06124)
T1 sequence (Q06124 whole entry): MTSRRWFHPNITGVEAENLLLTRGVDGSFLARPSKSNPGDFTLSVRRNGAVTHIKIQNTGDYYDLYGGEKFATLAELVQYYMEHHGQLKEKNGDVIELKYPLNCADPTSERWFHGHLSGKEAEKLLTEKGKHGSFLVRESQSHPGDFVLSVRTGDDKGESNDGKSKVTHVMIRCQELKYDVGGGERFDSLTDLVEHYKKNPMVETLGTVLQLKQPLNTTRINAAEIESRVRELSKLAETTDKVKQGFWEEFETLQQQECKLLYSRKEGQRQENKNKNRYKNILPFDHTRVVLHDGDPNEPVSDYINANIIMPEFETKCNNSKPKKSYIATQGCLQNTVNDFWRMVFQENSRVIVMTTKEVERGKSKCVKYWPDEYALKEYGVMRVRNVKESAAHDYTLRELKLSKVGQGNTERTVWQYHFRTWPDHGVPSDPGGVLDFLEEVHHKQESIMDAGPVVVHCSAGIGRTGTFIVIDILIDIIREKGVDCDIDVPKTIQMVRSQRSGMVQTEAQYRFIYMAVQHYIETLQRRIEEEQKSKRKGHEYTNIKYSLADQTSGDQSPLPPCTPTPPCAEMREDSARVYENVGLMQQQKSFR
Assay: pNPP assay

Compound: O=C(Nc1ccc(-c2ccc(NC(=O)c3ccc(F)cc3)cn2)cc1)c1ccc(F)cc1 [4-fluoro-N-(6-(4-(4-fluorobenzamido)phenyl)pyridin-3-yl)benzamide (29)]
- IC50: 19.7 µM

Compound: [O]=[V]([OH])([OH])[OH]
- IC50: 34.7 µM
